Data: the supplement of paper PMC10307832

How the values were obtained:
Test in all cases: relative viability (nuclei count vs DMSO), 5 days (fraction); higher = more cells survive
[1] = compound: COc1cc(-c2nn([C@H]3CC[C@H](N4CCN(C(C)=O)CC4)CC3)c3ncnc(N)c23)ccc1NC(=O)c1cc2ccccc2n1C + NC(=O)Nc1cc(-c2cccc(F)c2)sc1C(=O)N[C@H]1CCCNC1 [AZD7762] (partner 0.2 µM)
Method in brief: (§1)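 Cells from lung cancer lines were seeded into 1536-well plates and, one day later, dosed by pin tool. Treatments were either a single drug or a fixed dose of an anchor drug with five library-drug doses (not always all listed) in √10 steps. After 5 days, nuclei were stained in a one-step fixation (final 0.05% Triton X-100, 1% formaldehyde, 1 ug/ml Hoechst) and counted on 4× images, and relative viability is the treated-to-vehicle nuclei ratio, as the median of duplicate plates.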

Midostaurin + Vorinostat = compound: CO[C@@H]1[C@H](N(C)C(=O)c2ccccc2)C[C@H]2O[C@]1(C)n1c3ccccc3c3c4c(c5c6ccccc6n2c5c31)C(=O)NC4 [Midostaurin] + O=C(CCCCCCC(=O)Nc1ccccc1)NO [Vorinostat] (partner 1 µM)
Method in brief: as §1

Midostaurin + Pictilisib = compound: CO[C@@H]1[C@H](N(C)C(=O)c2ccccc2)C[C@H]2O[C@]1(C)n1c3ccccc3c3c4c(c5c6ccccc6n2c5c31)C(=O)NC4 [Midostaurin] + CS(=O)(=O)N1CCN(Cc2cc3nc(-c4cccc5[nH]ncc45)nc(N4CCOCC4)c3s2)CC1 [Pictilisib] (partner 1 µM)
Method in brief: as §1

Midostaurin + Foretinib = compound: CO[C@@H]1[C@H](N(C)C(=O)c2ccccc2)C[C@H]2O[C@]1(C)n1c3ccccc3c3c4c(c5c6ccccc6n2c5c31)C(=O)NC4 [Midostaurin] + COc1cc2c(Oc3ccc(NC(=O)C4(C(=O)Nc5ccc(F)cc5)CC4)cc3F)ccnc2cc1OCCCN1CCOCC1 [Foretinib] (partner 0.25 µM)
Method in brief: as §1

[2] = compound: COc1cc(-c2nn([C@H]3CC[C@H](N4CCN(C(C)=O)CC4)CC3)c3ncnc(N)c23)ccc1NC(=O)c1cc2ccccc2n1C + CC(=O)Nc1cccc(-n2c(=O)n(C3CC3)c(=O)c3c(Nc4ccc(I)cc4F)n(C)c(=O)c(C)c32)c1 [Trametinib] (partner 0.02 µM)
Method in brief: as §1

Cell Line | relative viability ([1]; first compound 0.0128 µM) | relative viability ([1]; first compound 0.04048 µM) | relative viability ([1]; first compound 0.128 µM) | relative viability ([1]; first compound 1.28 µM) | relative viability (Midostaurin + Vorinostat; first compound 0.01 µM) | relative viability (Midostaurin + Vorinostat; first compound 0.03162 µM) | relative viability (Midostaurin + Vorinostat; first compound 0.1 µM) | relative viability (Midostaurin + Vorinostat; first compound 0.3162 µM) | relative viability (Midostaurin + Pictilisib; first compound 0.01 µM) | relative viability (Midostaurin + Pictilisib; first compound 0.03162 µM) | relative viability (Midostaurin + Pictilisib; first compound 0.1 µM) | relative viability (Midostaurin + Pictilisib; first compound 0.3162 µM) | relative viability (Midostaurin + Foretinib; first compound 0.01 µM) | relative viability (Midostaurin + Foretinib; first compound 0.03162 µM) | relative viability (Midostaurin + Foretinib; first compound 0.1 µM) | relative viability (Midostaurin + Foretinib; first compound 0.3162 µM) | relative viability ([2]; first compound 0.0128 µM) | relative viability ([2]; first compound 0.04048 µM) | relative viability ([2]; first compound 0.128 µM) | relative viability ([2]; first compound 1.28 µM)
201T | 0.707 | 0.51 | 0.584 | 0.465 | 0.991 | 0.871 | 1.02 | 1.08 | 0.707 | 0.571 | 0.659 | 0.722 | 1.15 | 0.988 | 1.14 | 1.17 | 0.743 | 0.727 | 0.695 | 0.585
A549 |  |  |  |  |  |  |  |  | 0.549 | 0.446 | 0.483 | 0.224 | 0.871 | 0.781 | 0.939 | 0.99 |  |  |  | 
A-427 | 0.76 | 0.641 | 0.782 | 0.727 | 0.883 | 0.887 | 0.848 | 0.937 | 0.75 | 0.614 | 0.702 | 0.578 | 1.06 | 1.08 | 0.903 | 1.03 | 0.82 | 0.462 | 0.759 | 0.711
ABC-1 | 0.658 | 0.759 | 0.697 | 0.728 | 1.23 | 1.37 | 1.08 | 0.996 | 0.795 | 0.639 | 0.654 | 0.775 | 1.03 | 1.14 | 0.828 | 1.11 |  |  |  | 
BEN | 0.532 | 0.729 | 0.591 | 0.671 | 0.594 | 0.552 | 0.707 | 0.598 | 0.65 | 0.584 | 0.608 | 0.652 | 0.719 | 0.803 | 0.966 | 0.667 | 1.07 | 0.97 | 0.953 | 0.838
CAL-12T | 0.675 | 0.7 | 0.49 | 0.581 | 0.689 | 0.742 | 0.734 | 0.457 | 0.457 | 0.417 | 0.334 | 0.413 | 1.17 | 0.959 | 0.733 | 1.11 | 0.331 | 0.289 | 0.349 | 0.326
COR-L23 |  |  |  |  | 0.456 | 0.311 | 0.276 | 0.205 | 0.743 | 0.734 | 0.752 | 0.603 | 1.03 | 0.954 | 0.9 | 0.892 | 0.585 | 0.25 | 0.564 | 0.592
COR-L 105 |  |  |  |  | 0.899 | 0.846 | 0.702 | 0.535 | 0.36 | 0.453 | 0.337 | 0.34 | 1.04 | 1.04 | 0.909 | 1.09 | 0.481 | 0.489 | 0.412 | 0.298
Calu-6 |  |  |  |  |  |  |  |  | 0.876 | 0.837 | 0.937 | 0.771 | 0.879 | 0.921 | 0.89 | 0.835 |  |  |  | 
